Results as given in ChEMBL document CHEMBL1201862, “PubChem BioAssay data set” (2004).
Calls of active or inactive are those of the source.

What was measured:
[1] = system: Streptococcus sp. 'group A'; assay: Streptococcus pyogenes SK(-)GAS viability under kanamycin – luminescence, BacTiterGlo, confirmation, counter-screen for streptokinase expression inhibitor project, dose response (AID 1900); assay type: functional, organism-based
Streptococcus [2] = assay: Luminescence Microorganism-Based Dose Response Follow up to Identify Compounds Cytotoxic to Streptococcus. [Related pubchem assays: 1677 (Project Summary), 1915, 1914, 1902 (Retest at Dose), 1900 (Counter Screen), 1662 (Primary HTS)]; assay type: functional, organism-based
Streptococcus [3] = assay: GAS UMAA2166 growth inhibition – luminescence, BacTiterGlo, counter-screen for streptokinase expression inhibitor project, dose response (AID 1915); assay type: functional, organism-based;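 also: potency for reduction of bacterial viability or growth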
cells [4] = assay type: functional, cell-based
[5] = A Cell Based Secondary Assay To Explore Cytotoxicity of Compounds that Sensitize Mycobacterium Tuberculosis to Beta-Lactam Antibiotics.; assay type: functional
cells [6] = assay type: functional, cell-based; remark: listed apart in the source
Bcl-2-like protein 10 = biological target: T1, Bcl-2-like protein 10 (Homo sapiens, UniProt Q9HD36); assay: Concentration-response of Bcl-B inhibitors by biochemical FP with TR3 (AID 1243); assay type: functional
T1 sequence (Q9HD36 whole entry): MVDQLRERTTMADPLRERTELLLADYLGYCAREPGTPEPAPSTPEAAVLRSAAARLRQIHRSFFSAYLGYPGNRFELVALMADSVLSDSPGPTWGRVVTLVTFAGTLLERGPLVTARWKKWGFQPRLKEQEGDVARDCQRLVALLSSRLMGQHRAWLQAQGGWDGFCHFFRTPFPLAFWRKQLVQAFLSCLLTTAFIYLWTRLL

Aminopeptidase N = biological target: T2, Aminopeptidase N (Plasmodium falciparum FcB1/Columbia, UniProt O96935); assay: malaria alanyl aminopeptidase activity blockers – biochemical, fluorogenic H-Leu-NHMec substrate, 1536-well (AID 1445); set-up: species or system Plasmodium falciparum 3D7, 3D7
T2 sequence (O96935 whole entry): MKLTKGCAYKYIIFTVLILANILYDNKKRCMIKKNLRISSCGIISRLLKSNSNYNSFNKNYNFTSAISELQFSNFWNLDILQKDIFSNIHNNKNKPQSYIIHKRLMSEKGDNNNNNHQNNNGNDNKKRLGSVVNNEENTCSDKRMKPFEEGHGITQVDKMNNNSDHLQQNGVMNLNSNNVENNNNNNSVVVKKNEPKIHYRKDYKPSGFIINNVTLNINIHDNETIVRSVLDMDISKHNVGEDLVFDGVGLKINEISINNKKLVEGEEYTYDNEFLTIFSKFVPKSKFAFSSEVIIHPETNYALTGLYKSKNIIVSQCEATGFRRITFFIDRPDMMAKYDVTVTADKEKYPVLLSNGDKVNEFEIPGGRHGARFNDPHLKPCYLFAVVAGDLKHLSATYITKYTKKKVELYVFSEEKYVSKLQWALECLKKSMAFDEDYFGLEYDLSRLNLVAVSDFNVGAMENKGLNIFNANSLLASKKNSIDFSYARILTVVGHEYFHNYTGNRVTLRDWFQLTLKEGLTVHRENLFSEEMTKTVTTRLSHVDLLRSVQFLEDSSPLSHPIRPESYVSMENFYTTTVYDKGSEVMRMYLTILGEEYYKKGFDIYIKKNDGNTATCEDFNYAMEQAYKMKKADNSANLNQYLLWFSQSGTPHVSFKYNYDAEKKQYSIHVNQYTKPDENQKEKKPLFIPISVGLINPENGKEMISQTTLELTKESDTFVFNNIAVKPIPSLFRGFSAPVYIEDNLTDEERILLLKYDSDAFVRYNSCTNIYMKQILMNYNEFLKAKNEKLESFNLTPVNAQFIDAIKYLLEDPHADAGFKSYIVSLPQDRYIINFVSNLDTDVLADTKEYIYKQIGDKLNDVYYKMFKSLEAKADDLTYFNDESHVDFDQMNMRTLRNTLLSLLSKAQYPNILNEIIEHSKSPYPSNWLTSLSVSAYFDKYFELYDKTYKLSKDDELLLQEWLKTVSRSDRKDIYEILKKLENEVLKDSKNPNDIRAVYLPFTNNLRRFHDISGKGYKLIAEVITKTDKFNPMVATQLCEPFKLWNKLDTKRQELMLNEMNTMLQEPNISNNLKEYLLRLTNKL

[7] = biological target: Transitional endoplasmic reticulum ATPase (Homo sapiens, UniProt P55072, C522A); assay: C522A mutant p97 ATPase inhibitors, dose response, counter-screen for p97 inhibitor project, biochemical, luminescence (AID 1544)
Sequence of Transitional endoplasmic reticulum ATPase (Homo sapiens, UniProt P55072, C522A) (P55072 2-806 C522A limits assumed): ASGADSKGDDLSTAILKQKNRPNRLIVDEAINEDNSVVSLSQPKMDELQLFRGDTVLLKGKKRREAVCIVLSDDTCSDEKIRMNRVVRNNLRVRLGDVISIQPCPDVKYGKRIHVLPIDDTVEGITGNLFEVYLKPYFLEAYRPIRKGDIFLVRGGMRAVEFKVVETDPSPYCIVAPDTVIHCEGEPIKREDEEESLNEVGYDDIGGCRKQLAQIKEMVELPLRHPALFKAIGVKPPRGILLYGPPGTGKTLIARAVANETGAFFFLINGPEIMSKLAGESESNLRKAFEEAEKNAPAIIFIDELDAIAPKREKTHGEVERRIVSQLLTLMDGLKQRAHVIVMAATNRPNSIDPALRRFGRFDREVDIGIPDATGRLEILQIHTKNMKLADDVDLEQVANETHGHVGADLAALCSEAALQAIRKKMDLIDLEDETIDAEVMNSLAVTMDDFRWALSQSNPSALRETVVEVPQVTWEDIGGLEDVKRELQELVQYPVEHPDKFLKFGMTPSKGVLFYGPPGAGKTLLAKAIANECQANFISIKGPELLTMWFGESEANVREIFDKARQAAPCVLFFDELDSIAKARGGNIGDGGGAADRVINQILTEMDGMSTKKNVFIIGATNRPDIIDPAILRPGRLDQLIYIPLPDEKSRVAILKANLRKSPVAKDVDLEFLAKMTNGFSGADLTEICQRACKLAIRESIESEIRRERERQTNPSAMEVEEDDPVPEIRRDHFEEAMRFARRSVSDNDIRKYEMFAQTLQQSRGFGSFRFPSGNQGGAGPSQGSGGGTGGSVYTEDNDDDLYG

[8] = biological target: Transitional endoplasmic reticulum ATPase (Homo sapiens, UniProt P55072); assay: p97 ATPase inhibitors, dose response, biochemical (AID 1534)
Sequence of Transitional endoplasmic reticulum ATPase (Homo sapiens, UniProt P55072) (P55072 whole entry): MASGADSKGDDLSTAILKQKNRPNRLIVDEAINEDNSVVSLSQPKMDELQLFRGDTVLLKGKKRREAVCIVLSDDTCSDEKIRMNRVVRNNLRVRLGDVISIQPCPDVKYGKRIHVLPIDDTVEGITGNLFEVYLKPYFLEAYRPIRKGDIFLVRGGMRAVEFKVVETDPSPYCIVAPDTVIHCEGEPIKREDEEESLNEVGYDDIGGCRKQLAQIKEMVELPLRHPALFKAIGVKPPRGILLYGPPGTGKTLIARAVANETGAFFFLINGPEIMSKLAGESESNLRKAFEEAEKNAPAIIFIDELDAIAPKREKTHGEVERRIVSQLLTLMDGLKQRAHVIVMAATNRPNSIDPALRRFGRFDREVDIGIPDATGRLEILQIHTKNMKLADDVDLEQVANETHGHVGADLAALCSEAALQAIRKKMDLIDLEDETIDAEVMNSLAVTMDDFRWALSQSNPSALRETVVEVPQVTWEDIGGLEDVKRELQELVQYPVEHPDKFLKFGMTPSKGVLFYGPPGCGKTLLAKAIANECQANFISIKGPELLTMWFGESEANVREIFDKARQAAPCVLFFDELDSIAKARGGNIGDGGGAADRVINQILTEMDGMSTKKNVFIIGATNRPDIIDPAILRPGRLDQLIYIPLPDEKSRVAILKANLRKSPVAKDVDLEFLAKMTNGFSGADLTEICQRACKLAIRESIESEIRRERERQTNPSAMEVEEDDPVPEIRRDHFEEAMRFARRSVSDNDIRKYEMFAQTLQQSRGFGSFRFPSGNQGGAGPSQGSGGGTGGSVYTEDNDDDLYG

[9] = biological target: T3, Corticotropin-releasing factor receptor 2/Corticotropin-releasing factor-binding protein (Homo sapiens, UniProt P24387+Q13324); assay: Dose Response confirmation of uHTS hits for small molecule antagonists of the CRF-binding protein and CRF-R2 receptor complex.; assay type: functional; conditions: read-out: IC50_Mean
T3 sequence (Q13324 whole entry): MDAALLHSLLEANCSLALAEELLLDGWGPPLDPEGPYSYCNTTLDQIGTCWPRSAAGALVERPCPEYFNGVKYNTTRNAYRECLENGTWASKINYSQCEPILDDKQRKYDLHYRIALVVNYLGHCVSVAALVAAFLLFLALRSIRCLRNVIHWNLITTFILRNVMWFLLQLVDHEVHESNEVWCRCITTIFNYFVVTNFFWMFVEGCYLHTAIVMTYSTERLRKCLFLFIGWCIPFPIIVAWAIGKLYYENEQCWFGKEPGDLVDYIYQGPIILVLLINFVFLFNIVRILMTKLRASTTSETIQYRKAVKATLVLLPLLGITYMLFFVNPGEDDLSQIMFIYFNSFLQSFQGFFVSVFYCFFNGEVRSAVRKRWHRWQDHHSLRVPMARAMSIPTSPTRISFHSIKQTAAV
T3 sequence (P24387 whole entry): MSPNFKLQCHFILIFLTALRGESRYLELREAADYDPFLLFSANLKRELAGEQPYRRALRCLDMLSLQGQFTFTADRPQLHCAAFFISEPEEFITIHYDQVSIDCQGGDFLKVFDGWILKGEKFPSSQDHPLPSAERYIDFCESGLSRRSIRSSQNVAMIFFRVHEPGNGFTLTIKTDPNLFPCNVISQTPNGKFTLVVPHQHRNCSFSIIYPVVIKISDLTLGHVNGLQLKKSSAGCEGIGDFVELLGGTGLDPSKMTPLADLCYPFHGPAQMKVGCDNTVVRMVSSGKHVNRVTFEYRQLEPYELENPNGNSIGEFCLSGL

[10] = biological target: T3, Corticotropin-releasing factor receptor 2/Corticotropin-releasing factor-binding protein; assay: activators of CRF receptor 2 with binding protein – uHTS hits, confirmation (AID 602473); assay type: functional; conditions: read-out: EC50_Mean
[11] = blockers of CRF-binding protein–CRF-R2 complex – cell-based, uHTS hits, 384-well, dose response (AID 651639); assay type: functional, Homo sapiens; conditions: read-out: IC50_Mean
[12] = biological target: T4, Long-chain-fatty-acid--AMP ligase FadD28 (Mycobacterium tuberculosis, UniProt P9WQ59); assay: Fluorescence polarization aasay to screen for inhibitors that compete for the binding of FadD28 to a bisubstrate Measured in Biochemical System Using Plate Reader - 2147-01_Inhibitor_Dose_CherryPick_Activity.; assay type: functional, Mycobacterium tuberculosis H37Rv
T4 sequence (P9WQ59 whole entry): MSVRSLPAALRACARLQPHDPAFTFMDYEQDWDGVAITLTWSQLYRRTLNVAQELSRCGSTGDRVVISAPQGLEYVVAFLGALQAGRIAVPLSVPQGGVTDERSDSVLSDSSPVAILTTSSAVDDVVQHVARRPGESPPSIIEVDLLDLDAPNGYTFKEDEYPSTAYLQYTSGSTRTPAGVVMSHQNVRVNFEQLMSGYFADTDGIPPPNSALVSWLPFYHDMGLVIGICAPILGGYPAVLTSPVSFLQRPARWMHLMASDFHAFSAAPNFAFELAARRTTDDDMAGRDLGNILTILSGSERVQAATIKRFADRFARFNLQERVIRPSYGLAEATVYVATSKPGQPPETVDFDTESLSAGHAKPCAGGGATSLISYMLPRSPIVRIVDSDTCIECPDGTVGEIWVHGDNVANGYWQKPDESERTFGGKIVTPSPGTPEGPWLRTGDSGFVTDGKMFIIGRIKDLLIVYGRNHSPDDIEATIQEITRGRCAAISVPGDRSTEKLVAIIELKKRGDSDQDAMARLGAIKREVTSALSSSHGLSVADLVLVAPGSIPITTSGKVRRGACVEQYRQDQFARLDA

O=C(CSc1nc(O)nc(-c2ccc(Cl)cc2)n1)Nc1cccc(Cl)c1
EC50 [1]: 4.35 µM (active) | EC50 (Streptococcus [2]): 26.2 µM (active) | EC50 (Streptococcus [3]): > 150 µM (not active)

CC(C)N=C(S)NN=C1c2ccccc2-c2ccccc21
EC50 (cells [4]): > 350 µM (not active) | CC50 [5]: > 40 µM (active) | EC50 (cells [6]): > 350 µM (not active)

Cn1c(=O)cc2c3c(c(Nc4ccc(C=O)cc4)ccc31)C(=O)c1ccccc1-2
EC50 (Bcl-2-like protein 10): 8.04 µM (active)

COc1cc(C2Nc3ccc4ccccc4c3C3=C2C(=O)CC(C)(C)C3)c(Br)cc1O (configuration not stated)
EC50 (Bcl-2-like protein 10): 13.1 µM (active)

CCOC(=O)c1c(C)[nH]c(C)c1C(=O)COC(=O)c1ccc(S(=O)(=O)N(CC)CC)cc1
CC50 [5]: > 40 µM (active)

COc1ccc(SCC(=O)N2c3ccccc3Sc3ccccc32)cc1
EC50 (Streptococcus [2]): > 500 µM (not active)

Cc1[nH]c2ccccc2c1/C=C1/C(=N)N2C(=NC1=O)SN=C2S(=O)(=O)CC(C)C
IC50 (Aminopeptidase N): 29.5 µM (active) | IC50 [7]: > 50 µM (not active) | IC50 [8]: 12.3 µM (not active) | IC50 [9]: 9.51 µM (active) | EC50 [10]: > 53 µM (inactive) | IC50 [11]: > 20 µM (inactive) | AC50 [12]: > 100 µM (inactive)
